Patent publication US20210038730A1, “PEPTIDE NANOFIBERS” (UNIVERSITY OF PORTSMOUTH HIGHER EDUCATION CORPORATION, priority 2018, published 2021)

Tests used:
[1] = Isoelectric point by acid-base titration; assay type: physicochemical
Procedure: Both peptides were characterised by electrospray ionisation (positive/negative) mass spectrometry (MS), nuclear magnetic resonance (NMR), RP-HPLC, attenuated total reflectance Fourier-transformed infrared (ATR-FTIR) spectroscopy, thermogravimetric analysis (TGA) and differential scanning calorimetry (DSC). The isoelectric point of the peptides was also determined using an acid-base titration.

[2] = molecular target: T1, GnRH-R on U-87 MG cells (Homo sapiens, UniProt P30968); assay: SMFS blocking experiments with free GnRH-R ligands; assay type: binding
T1 construct: endogenous in cells; host or cells: U-87 MG
T1 sequence (P30968 1-328): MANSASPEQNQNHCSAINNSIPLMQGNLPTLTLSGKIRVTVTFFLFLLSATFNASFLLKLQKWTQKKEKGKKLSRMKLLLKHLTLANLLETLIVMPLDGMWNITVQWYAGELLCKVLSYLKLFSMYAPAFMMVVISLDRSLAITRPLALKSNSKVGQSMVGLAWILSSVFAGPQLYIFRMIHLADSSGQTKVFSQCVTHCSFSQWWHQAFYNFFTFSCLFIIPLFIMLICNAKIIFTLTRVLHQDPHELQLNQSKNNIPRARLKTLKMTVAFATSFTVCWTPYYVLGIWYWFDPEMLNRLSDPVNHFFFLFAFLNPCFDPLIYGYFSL
Procedure: Blocking experiments were performed with different GnRH-R ligands (anti-GnRH-R antibody, Glu-GnRH, goserelin acetate, and TPGnRH). U-87 MG cells were analysed with tips functionalised with TPGnRH nanofibers and then the free ligands were added at a final concentration of 1 μg mL^−1 (anti-GnRH-R antibody) or 50 μg mL^−1 (Glu-GnRH, goserelin acetate and TPGnRH). U-87 MG cells treated with ligands were incubated for, at least, one hour at room temperature, and then the same cells were analysed with the same TPGnRH-functionalised tip at the same location in the cell.

[3] = test system: U-87 MG cells; assay: Cell proliferation (BrdU ELISA); assay type: cell-based, human; details: >7 μM, every two days, 6 days of treatment
Procedure: (§1) In vitro antitumour effects of TPGnRH and PAX-loaded TPGnRH were assessed in U-87 MG cells, UP-007, UP-029, SEBTA-023 MDA-MD-231 [triple negative (ER^−, PR—, HER2^−) breast cancer cell line] and SK-OV-3 (human ovarian carcinoma with a low expression of GnRH-R). Cells were seeded at 1,400 cells/cm^2 and allowed to attach and grow for 3 days. In experiments with TPGnRH nanofibers alone (to obtain the IC50 value in each cell line), cells were treated with medium supplemented with the peptide solutions in PBS (0.7 to 700 μM) to achieve a final concentration of 0.07 to 70 μM per well. Media was replaced by fresh media every two days for 6 days. […] On day 4, PAX-loaded TPGnRH nanofibers containing 1 nM of PAX and 7 or 35 μM of TPGnRH were added and the effect on cell viability, proliferation, cell cycle, and apoptosis was assessed on day 6. Only for the MDA-MB-231 cells, on day 4, PAX-loaded TPGnRH nanofibers containing 10 nM of PAX and 7 or 35 μM of TPGnRH were added and the effect on cell viability, proliferation, cell cycle, and apoptosis was also assessed on day 6. […] Cell metabolic activity was measured using MTT assay. […] Afterwards, dimethyl sulfoxide (100 μL) was added to the wells to dissolve the formazan crystals and the absorbance was measured at 570 and 690 nm. […] Cells were incubated with BrdU for 24 hours before the end of the pre-determined time-points. […]

[4] = test system: U-87 MG cells; assay: Apoptosis (Annexin V-FITC); assay type: cell-based, human; details: >7 μM, every two days, 6 days of treatment
Procedure: as §1

[5] = molecular target: T2, GnRH-R (Homo sapiens, UniProt P30968); assay: Forskolin-induced intracellular cAMP ELISA; assay type: cell-based; details: forskolin 5 μM, 15 minutes
T2 construct: The intracellular cAMP was quantified using the Direct cAMP ELISA kit; endogenous in cells
T2 sequence (P30968 1-328): T1 sequence (P30968 1-328)

[6] = in vitro; details: human, tissue homogenate
Procedure: (§2) Fresh blood, obtained from adult male Wistar rats, was collected in sterile the 170 I.U. lithium heparin-coated tubes (Vacutainer, BD Bioscience, UK). Blood was centrifuged immediately at 2,000 g for 15 minutes (4° C.) and supernatant was collected and diluted to 50% (v/v) with PBS. Livers and brains were obtained from adult male Wistar rats, and the tissues were blotted to dryness, weighed, sliced into pieces, and homogenised with ice-cold PBS (in 2 mL of buffer g^−1 of tissue) using the glass homogeniser. Then, tissue homogenates were centrifuged at 4,300 g for 1 hour (4° C.) and the supernatants collected. Glioblastoma cell homogenates were prepared using U-87 MG cells. Cells were cultured in Eagle's Minimum Essential Medium (EMEM) supplemented with 10% (v/v) heat-inactivated fetal bovine serum (FBS), 1% (v/v) of non-essential amino acids (NEAA) and 1 mM of sodium pyruvate in T75 flasks with a surface area of 75 cm^2 and maintained in a humidified atmosphere of 5% CO2 at 37° C. Breast cancer cell homogenates were prepared using MDA-MB-231 cells. Cells were cultured in Dulbecco's Modified Eagle Medium (DMEM) supplemented with high levels of glucose (4.5 g/L), 10% (v/v) heat-inactivated fetal bovine serum (FBS), 1% (v/v) of non-essential amino acids (NEAA) and penicillin and streptomycin (500 units/mL) in T75 flasks with a surface area of 75 cm^2 and maintained in a humidified atmosphere of 5% CO2 at 37° C. Media was changed for both cell lines every 3 to 4 days. After reaching confluence, cells were washed twice with Hank's Balanced Salt Solution (HBSS) and incubated with ˜2 mL of TrypLE Enzyme at 37° C. for ˜3 minutes. Then, complete media were added, and cells were centrifuged at 1,000 rpm for 5 minutes in C-28A centrifuge (Boeco, Germany). U-87 MG or MDA-MB-231 cells (˜10×10^6 cells mL^−1) were re-suspended in ice-cold PBS, and homogenised with a 2×5 second pulses with the probe sonicator (UP200S Ultrasonic processor, SciMed, 200 watts, amplitude of 60%). Cell debris were removed by centrifugation at 2,000 rpm for 5 minutes (Jouan B4i, Thermo Scientific, Paisley, UK). Supernatant was collected and stored at −80° C. Total protein concentration in the homogenates was determined using the Bradford assay with bovine serum albumin as a standard. Diluted plasma, tissue or cell homogenates were pre-warmed during ˜30 minutes at 37° C. Peptide stock solutions (Glu-GnRH, goserelin acetate and TPGnRH, 5 mM in PBS, 500 μL) were prepared and added to the homogenate solutions (120 μL). PAX-loaded nanofibers prepared at a ratio of 1:7.36 [PAX:TPGnRH consisting of 3 μmol (2.56 mg mL^−1) of PAX, 22.02 μmol (31.46 mg mL^−1) of TPGnRH], as previously described, and further diluted in PBS to achieve a concentration of 5 mM of TPGnRH and 500 nM of PAX (120 μL) were added to the homogenates. At various time intervals, an aliquot was collected (80 μL) and added to ice-cold ACN (80 μL) to quench the enzymatic activity. Samples were stored at −80° C. for at least 3 hours to maximise protein precipitation. Samples were vortexed for 15 minutes, centrifuged for 15 minutes at 12,000 rpm, and the supernatants were collected and analysed by RP-HPLC.

[7] = Enzymatic stability in U-87 MG cell homogenates; details: analyte in brackets of label
Procedure: Fresh blood, obtained from adult male Wistar rats, was collected in sterile the 170 I.U. lithium heparin-coated tubes (Vacutainer, BD Bioscience, UK). Blood was centrifuged immediately at 2,000 g for 15 minutes (4° C.) and supernatant was collected and diluted to 50% (v/v) with PBS. Livers and brains were obtained from adult male Wistar rats, and the tissues were blotted to dryness, weighed, sliced into pieces, and homogenised with ice-cold PBS (in 2 mL of buffer g^−1 of tissue) using the glass homogeniser. Then, tissue homogenates were centrifuged at 4,300 g for 1 hour (4° C.) and the supernatants collected. Glioblastoma cell homogenates were prepared using U-87 MG cells. Cells were cultured in Eagle's Minimum Essential Medium (EMEM) supplemented with 10% (v/v) heat-inactivated fetal bovine serum (FBS), 1% (v/v) of non-essential amino acids (NEAA) and 1 mM of sodium pyruvate in T75 flasks with a surface area of 75 cm^2 and maintained in a humidified atmosphere of 5% CO2 at 37° C. Breast cancer cell homogenates were prepared using MDA-MB-231 cells. Cells were cultured in Dulbecco's Modified Eagle Medium (DMEM) supplemented with high levels of glucose (4.5 g/L), 10% (v/v) heat-inactivated fetal bovine serum (FBS), 1% (v/v) of non-essential amino acids (NEAA) and penicillin and streptomycin (500 units/mL) in T75 flasks with a surface area of 75 cm^2 and maintained in a humidified atmosphere of 5% CO2 at 37° C. Media was changed for both cell lines every 3 to 4 days. After reaching confluence, cells were washed twice with Hank's Balanced Salt Solution (HBSS) and incubated with ˜2 mL of TrypLE Enzyme at 37° C. for ˜3 minutes. Then, complete media were added, and cells were centrifuged at 1,000 rpm for 5 minutes in C-28A centrifuge (Boeco, Germany). […] Total protein concentration in the homogenates was determined using the Bradford assay with bovine serum albumin as a standard. […] Samples were vortexed for 15 minutes, centrifuged for 15 minutes at 12,000 rpm, and the supernatants were collected and analysed by RP-HPLC.

[8] = Enzymatic stability in MDA-MB-231 cell homogenates
Procedure: as §2

[9] = human, MDA-MB-231 breast cancer cell homogenate

In the case of `CCCCCCCCCCCCCCCC(=O)Oc1ccc(C[C@H](NC(=O)[C@H](CO)NC(=O)[C@H](Cc2c[nH]c3ccccc23)NC(=O)[C@H](Cc2c[nH]cn2)NC(=O)[C@@H](N)CCC(=O)O)C(=O)NCC(=O)N[C@@H](CC(C)C)C(=O)N[C@@H](CCCNC(=N)N)C(=O)N2CCC[C@H]2C(=O)NCC(N)=O)cc1` [TPGnRH, Tyrosine (O-Palmitoyl)-Glu-GnRH], the Isoelectric point [1] is reported as 6.28±0.51, the “Binding Probability of TPGnRH nanofiber tip to U-87 MG cells” value ([2]; after pre-incubation with the free ligand named as label (antibody 1 μg mL^−1, peptides 50 μg mL^−1)) is reported as 4.5% and the “Binding Probability of TPGnRH nanofiber tip to U-87 MG cells” value ([2]; before addition of the free ligand named as label (no pre-incubation)) is reported as 14.7%. For the same molecule, the “effect on cell proliferation” value [3] was “significant reduction in cell proliferation”, the effect on apoptosis [4] was “trigger apoptosis” and the “effect on forskolin-induced cAMP intracellular accumulation” value [5] was “counteracted the forskolin-induced cAMP intracellular accumulation”. It also gave a half-life at 4.03 mM [6] of 51.9 ± 8.73 h, a k [7] of 0.1781 min⁻¹ and a Plateau ([8]; MDA-MB-231 cell homogenates) of 325.8 µg/mL. For the same molecule, the k ([8]; MDA-MB-231 cell homogenates) was 2.224 min⁻¹, the AUC(0-t) at 4.03 mM [8, 9] was 105000 µg·h/mL and the C0 at 4.03 mM [8, 9] was 710 µg/mL.
